Our source for the IC50 values is patent US20160159814A1, “GLYCINE TRANSPORTER INHIBITOR” (TAISHO PHARMACEUTICAL CO., LTD., priority 2013, published 2016).

Molecules are shown by their SMILES.

For the first assay, the target named is T1, human type 1 glycine transporter (GlyT1) (Homo sapiens, UniProt P48067).
T1 construct: T98G cells (glioma cells) expressing human type 1 glycine transporter (GlyT1) were used; endogenous in cells; host or cells: T98G cells (human glioma cells)
T1 sequence (P48067 1-706): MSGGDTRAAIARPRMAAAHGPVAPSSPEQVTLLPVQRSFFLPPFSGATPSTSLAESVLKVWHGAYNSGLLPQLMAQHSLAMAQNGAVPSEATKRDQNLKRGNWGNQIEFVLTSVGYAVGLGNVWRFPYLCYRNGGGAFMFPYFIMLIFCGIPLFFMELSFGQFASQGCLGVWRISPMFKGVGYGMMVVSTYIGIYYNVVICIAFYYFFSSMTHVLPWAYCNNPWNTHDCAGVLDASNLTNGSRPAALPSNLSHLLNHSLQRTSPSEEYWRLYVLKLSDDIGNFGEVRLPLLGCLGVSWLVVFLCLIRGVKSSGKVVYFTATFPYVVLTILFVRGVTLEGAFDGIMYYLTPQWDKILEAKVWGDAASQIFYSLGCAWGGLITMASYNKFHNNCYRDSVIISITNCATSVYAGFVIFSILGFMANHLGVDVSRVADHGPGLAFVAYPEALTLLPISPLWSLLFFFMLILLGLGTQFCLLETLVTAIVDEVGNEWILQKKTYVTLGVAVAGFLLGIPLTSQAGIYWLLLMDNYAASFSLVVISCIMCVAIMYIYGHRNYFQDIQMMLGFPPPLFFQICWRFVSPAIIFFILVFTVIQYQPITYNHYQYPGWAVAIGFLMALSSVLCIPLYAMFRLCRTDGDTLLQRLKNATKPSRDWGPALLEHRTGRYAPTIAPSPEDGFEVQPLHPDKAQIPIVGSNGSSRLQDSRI
The assay can be described thus: Glycine uptake inhibition experiment ([3H] glycine uptake in T98G cells expressing GlyT1). Format: cell-based.
Settings: not given
The method in brief:
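T98G glioma cells expressing human GlyT1 were pretreated 10 min with compound in HEPES buffer pH 7.4 (0.2% BSA), then incubated with compound plus 250 nM final [3H]glycine for 15 min at room temperature. Intracellular radioactivity was counted after NaOH lysis; 10 μM ALX5407 defined non-specific uptake. IC50 came from 10^−9–10^−5 M curves.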
As for `O=C1N(Cc2cncc(C(F)(F)F)c2)c2cccc(C(O)C(F)F)c2C1(F)F` (single isomer, unassigned) [Compound 186, 4-(2,2-difluoro-1-hydroxyethyl)-3,3-difluoro-1-{[5-(trifluoromethyl)pyridin-3-yl]methyl}-1,3-dihydro-2H-indol-2-one], the half-inhibitory concentration (IC50) amounted to 64 nM.

Regarding `COc1nc(C(F)(F)F)ccc1CN1C(=O)C(F)(F)c2c([C@H](C)O)cccc21` [Compound 243, 3,3-difluoro-4-[(1S)-1-hydroxyethyl]-1-({2-methoxy-6-(trifluoromethyl)pyridin-3-yl]methyl}-1,3-dihydro-2H-indol-2-one], the IC50 amounted to 57 nM.

Consider `C[C@H](O)c1cccc2c1C(F)(F)C(=O)N2Cc1ccc(-n2cncn2)nc1` [Compound 193, 3,3-difluoro-4-[(1S)-1-hydroxyethyl]-1-{[6-(1H-1,2,4-biazol-1-yl)pyridin-3-yl]methyl}-1,3-dihydro-2H-indol-2-one], for which the midpoint of inhibition, the IC50, lay at 1400 nM.

On to `C[C@H](O)c1cccc2c1C(F)(F)C(=O)N2Cc1cccc(C#N)n1` [Compound 177, 6-({3,3-difluoro-4-[(1S)-1-hydroxyethyl]-2-oxo-2,3-dihydro-1H-indol-1-yl}methyl)pyridine-2-carbonitrile], for which the IC50 is 24 nM.

In turn, `N#Cc1cc(CN2C(=O)C(F)(F)c3c(C(O)C(F)F)cccc32)c(Cl)cn1` (single isomer, unassigned) [Compound 220] had an IC50 of 170 nM.

`COc1ccc(CN2C(=O)C(F)(F)c3c(C(O)C(F)F)cccc32)cn1` (single isomer, unassigned) [Compound 255, 4-(2,2-difluoro-1-hydroxyethyl)-3,3-difluoro-1-[(6-methoxypyridin-3-yl)methyl)-1,3-dihydro-2H-indol-2-one] registered a half-inhibitory concentration (IC50) of 69 nM.

With `O=C1N(Cc2cncc(Cl)c2)c2c(F)ccc(C(O)C(F)F)c2C1(F)F` (stereo not drawn) [Compound 252, 1-[(5-chloropyridin-3-yl)methyl]-4-(2,2-difluoro-1-hydroxyethyl)-3,3,7-trifluoro-1,3-dihydro-2H-indol-2-one], it took 46 nM to reach half-maximal inhibition (IC50).

For `C[C@H](O)c1cccc2c1C(F)(F)C(=O)N2Cc1cnccc1Cl` [Compound 207, 1-[(4-chloropyridin-3-yl)methyl]-3,3-difluoro-4-[(1S)-1-hydroxyethyl]-1,3-dihydro-2H-indol-2-one], the 50% inhibitory concentration (IC50) is 94 nM.

The molecule `C[C@H](O)c1cccc2c1C(F)(F)C(=O)N2Cc1ccc(Cl)nc1Cl` [Compound 224, 1-[(2,6-dichloropyridin-3-yl)methyl]-3,3-difluoro-4-[(1S)-1-hydroxyethyl]-1,3-dihydro-2H-indol-2-one] had an IC50 of 740 nM.

As for `O=C1N(Cc2cncc(Cl)c2)c2cc(F)cc(C(O)C(F)F)c2C1(F)F` (stereo not drawn) [Compound 234, 1-[(5-chloropyridin-3-yl)methyl)-4-(2,2-difluoro-1-hydroxyethyl)-3,3,6-trifluoro-1,3-dihydro-2H-indol-2-one], it took 620 nM to reach half-maximal inhibition (IC50).

With `COc1cc(CN2C(=O)C(F)(F)c3c([C@H](C)O)cccc32)cnc1F` [Compound 240, 3,3-difluoro-1-[(6-fluoro-6-methoxypyridin-3-yl)methyl]-4-[(1S)-1-hydroxyethyl]-1,3-dihydro-2H-indol-2-one], the half-maximal inhibitory concentration (IC50) stood at 60 nM.

The molecule `C[C@H](O)c1cccc2c1C(F)(F)C(=O)N2Cc1ncc(F)cc1C#N` [Compound 233, 2-({3,3-difluoro-4-[(1S)-1-hydroxyethyl)-2-oxo-2,3-dihydro-1H-indol-1-yl}methyl)-5-fluoropyridine-3-carbonitrile] gave a half-maximal inhibitory concentration (IC50) of 180 nM.

For `C[C@H](O)c1cccc2c1C(F)(F)C(=O)N2Cc1ncccc1F` [Compound 208, 3,3-difluoro-1-[(3-fluoropyridin-2-yl)methyl]-4-[(1S)-1-hydroxyethyl]-1,3-dihydro-2H-indol-2-one], the IC50 worked out at 150 nM.

With `CC(O)c1c(F)ccc2c1C(F)(F)C(=O)N2Cc1ccnc(C#N)c1` (single isomer, unassigned) [Compound 184, 4-{(3,3,5-trifluoro-4-(1-hydroxyethyl)-2-oxo-2,3-dihydro-1H-indol-1-yl]methyl}pyridine-2-carbonitrile], the IC50 is 95 nM.

Still in this assay, the particulars now being: glycine uptake inhibition.
`O=C1N(Cc2cncc(Cl)c2)c2ccc(Cl)c([C@@H](O)C(F)(F)F)c2C1(F)F` [Compound 95, 5-chloro-1-[(5-chloropyridin-3-yl)methyl]-3,3-difluoro-4-[(1R)-2,2,2-trifluoro-1-hydroxyethyl]-1,3-dihydro-2H-indol-2-one] registered an IC50 of 1000 nM.

`O=C1N(Cc2ccnc(Cl)c2)c2cccc(C(O)C(F)F)c2C1(F)F` (single isomer, unassigned) [Compound 36, 1-[(2-chloropyridin-4-yl)methyl]-4-(2,2-difluoro-1-hydroxyethyl)-3,3-difluoro-1,3-dihydro-2H-indol-2-one] gave an IC50 of 13 nM.

The molecule `O=C1N(Cc2cncc(Cl)c2)c2ccc(F)c(C(O)C(F)F)c2C1(F)F` (single isomer, unassigned) [Compound 136] returned an IC50 of 1700 nM.

`CC(O)c1cccc2c1C(F)(F)C(=O)N2Cc1ccnc(C#N)c1` (stereo not drawn) [Compound 28] showed an IC50 of 98 nM.

In turn, `C[C@H](O)c1cccc2c1C(F)(F)C(=O)N2Cc1nc2ncccc2c(=O)n1C` [Compound 108, 2-({3,3-difluoro-4-[(1S)-1-hydroxyethyl]-2-oxo-2,3-dihydro-1H-indol-1-yl}methyl)-3-methylpyrido[2,3-d]pyrimidin-4(3H)-one] registered a half-inhibitory concentration (IC50) of 240 nM.

Consider `COc1cccc(CN2C(=O)C(F)(F)c3c([C@H](C)O)cccc32)n1` [Compound 68, 3,3-difluoro-4-[(1S)-1-hydroxyethyl]-1-[(6-methoxypyridin-2-yl)methyl]-1,3-dihydro-2H-indol-2-one], for which 76 nM corresponded to half-maximal inhibition (IC50).

Take `C[C@H](O)c1cccc2c1C(F)(F)C(=O)N2Cc1nnc2ccccc2n1` [Compound 105, 1-(1,2,4-benzotriazin-3-ylmethyl)-3,3-difluoro-4-[(1S)-1-hydroxyethyl]-1,3-dihydro-2H-indol-2-one]: the IC50 turned out to be 1000 nM.

The molecule `O=C1N(Cc2ccnc(Cl)c2)c2cccc([C@@H](O)C(F)(F)F)c2C1(F)F` [Compound 32, 1-[(2-chloropyridin-4-yl)methyl]-3,3-difluoro-4-[(1R)-2,2,2-trifluoro-1-hydroxyethyl]-1,3-dihydro-2H-indol-2-one] came in with a half-inhibitory concentration (IC50) of 38 nM.

Molecule `Cc1nc2ccccc2nc1CN1C(=O)C(F)(F)c2c([C@H](C)O)cccc21` [Compound 79, 3,3-difluoro-4-[(1S)-1-hydroxyethyl]-1-[(3-methylquinoxalin-2-yl)methyl]-1,3-dihydro-2H-indol-2-one] had an IC50 of 31 nM.

Regarding `C[C@H](O)c1cccc2c1C(F)(F)C(=O)N2Cc1cncc(C#N)c1` [Compound 70, 5-({3,3-difluoro-4-[(1S)-1-hydroxyethyl]-2-oxo-2,3-dihydro-1H-indol-1-yl}methyl)pyridine-3-carbonitile], the IC50 came to 91 nM.

`O=C1N(Cc2ccc(F)nc2)c2cccc([C@@H](O)C(F)(F)F)c2C1(F)F` [Compound 155, 3,3-difluoro-1-[(6-fluoropyridin-3-yl)methyl]-4-[(1R)-2,2,2-trifluoro-1-hydroxyethyl]-1,3-dihydro-2H-indol-2-one] yielded an IC50 of 180 nM.

Consider `COc1cc(CN2C(=O)C(F)(F)c3c([C@H](C)O)cccc32)ccn1` [Compound 124, 3,3-difluoro-4-[(1S)-1-hydroxyethyl]-1-[(2-methoxypyridin-4-yl)methyl]-1,3-dihydro-2H-indol-2-one], for which the IC50 was 12 nM.

Molecule `C[C@@H](O)c1cccc2c1C(F)(F)C(=O)N2Cc1nc2ccccc2c(=O)n1C` [Compound 39, 2-({3,3-difluoro-4-[(1R)-1-hydroxyethyl]-2-oxo-2,3-dihydro-1H-indol-1-yl}methyl)-3-methylquinazolin-4(3H)-one] returned a 50% inhibitory concentration (IC50) of 620 nM.

Staying with this assay, now noted: table section whose head prints (μm).
Take `O=C1N(Cc2ccc(F)c(Cl)n2)c2cccc(C(O)C(F)F)c2C1(F)F` (single isomer, unassigned) [Compound 263, 1-[(6-chloro-5-fluoropyridin-2-yl)methyl]-4-(2,2-difluoro-1-hydroxyethyl)-3,3-difluoro-1,3-dihydro-2H-indol-2-one]: the IC50 turned out to be 11 nM.

On to `O=C1N(Cc2cnc(Cl)cc2Cl)c2cccc(C(O)C(F)F)c2C1(F)F` (single isomer, unassigned) [Compound 269, 1-[(4,6-dichloropyridin-3-yl)methyl]-4-(2,2-difluoro-1-hydroxyethyl)-3,3-difluoro-1,3-dihydro-2H-indol-2-one], for which the IC50 stood at 330 nM.

`N#Cc1cc(CN2C(=O)C(F)(F)c3c(C(O)C(F)F)cccc32)cnc1F` (single isomer, unassigned) [Compound 272, 5-{[4-(2,2-difluoro-1-hydroxyethyl)-3,3-difluoro-2-oxo-2,3-dihydro-1H-indol-1-yl]methyl}-2-fluoropyridine-3-carbonitrile] came in with a half-maximal inhibitory concentration (IC50) of 27 nM.
